Data taken from article PMC10017046 (Science Advances, 2023).

Tests used:
GI motility = settings: cited from earlier work; for GI motility activity: [51]
[1] = cited from earlier work
MTLR [2] = settings: cited from earlier work
MTLR [3] = settings: cited from earlier work; remark: listed apart in the source
MTLR [4] = settings: camicinal; ref [51]; cited from earlier work
MTLR [5] = settings: cited from earlier work; remark: listed apart in the source
MTLR L341A = MTLR L341A (Homo sapiens, UniProt O43193, L341A); assay: IP1 accumulation; type: cell-based; settings: MTLR-bearing alanine mutation of L341^7.39
[6] = system: MTLR, substitution of E119^3.33 with aspartic acid; settings: E119^3.33 substituted with aspartic acid; ref [16]; cited from earlier work
gastroparesis = settings: ref [14], [15]; cited from earlier work

MTLR L341A, sequence (O43193 whole entry L341A): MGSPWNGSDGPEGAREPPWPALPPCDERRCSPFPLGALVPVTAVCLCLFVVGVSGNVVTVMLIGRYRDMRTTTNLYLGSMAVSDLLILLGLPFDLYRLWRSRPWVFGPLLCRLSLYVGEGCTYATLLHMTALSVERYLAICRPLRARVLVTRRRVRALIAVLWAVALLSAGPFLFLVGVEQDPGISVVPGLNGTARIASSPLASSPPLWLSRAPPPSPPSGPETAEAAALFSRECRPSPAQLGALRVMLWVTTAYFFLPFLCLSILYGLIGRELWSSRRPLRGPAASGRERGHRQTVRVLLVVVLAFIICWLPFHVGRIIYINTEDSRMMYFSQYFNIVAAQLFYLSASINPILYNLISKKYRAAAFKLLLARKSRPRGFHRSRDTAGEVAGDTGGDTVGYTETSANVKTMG

In the case of `CC[C@H]1OC(=O)[C@H](C)[C@@H](O[C@H]2C[C@@](C)(OC)[C@@H](O)[C@H](C)O2)[C@H](C)[C@@H](O[C@@H]2O[C@H](C)C[C@H](N(C)C)[C@H]2O)[C@](C)(O)C[C@@H](C)CN(C)[C@H](C)[C@@H](O)[C@]1(C)O` [azithromycin], the GI motility activity (GI motility; ref [9]) is listed as “mimic the GI motility activity of motilin” and the GI disturbances ([1]; long-term use, azithromycin, ref [4], [15]) is listed as “often causes unexpected GI disturbances”.
In the case of atilmotin, the adverse effects ([1]; ref [50]) is given as “not associated with any central nervous system–, respiratory system–, or cardiovascular system–related adverse effects”.
In the case of `CC[C@H]1OC(=O)[C@H](C)[C@@H](O[C@H]2C[C@@](C)(OC)C[C@H](C)O2)[C@H](C)[C@@H](O[C@@H]2O[C@H](C)C[C@H](N(C)CC)[C@H]2O)[C@@]2(C)CC(C)=C(O2)[C@H](C)[C@@H](O)[C@H]1C` [ABT-229], the desensitization-inducing effect (MTLR [2]; compared with motilin and erythromycin, ref [52], [53]) is given as “more potent desensitization-inducing effect compared with motilin and erythromycin” and the receptor internalization (MTLR [2]; ref [52], [53]) is given as “relatively high ability to induce receptor internalization”.
In the case of `C[C@H]1CN(Cc2ccc(CC(=O)N3CCC(Nc4cccc(F)c4)CC3)cc2)CCN1` [Camicinal, camicinal], the “oral effectiveness as MTLR agonist” value (MTLR [3]; ref [51]) is given as “orally effective MTLR agonist”, the gastric cholinergic activity (GI motility; ref [51]) is given as “long-lasting gastric cholinergic activity” and the receptor selectivity (MTLR [4]) is given as “high receptor selectivity”.
In the case of `CC[C@H]1OC(=O)[C@H](C)[C@@H](O[C@H]2C[C@@](C)(OC)[C@@H](O)[C@H](C)O2)[C@H](C)[C@@H](O[C@@H]2O[C@H](C)C[C@H](N(C)C(C)C)[C@H]2O)[C@@]2(C)CC(C)=C(O2)[C@H](C)C(=O)[C@]1(C)OC` [mitemcinal], the desensitization effect (MTLR [2]; ref [54]) is listed as “much more improved”.
In the case of “motilin analog [1-12]: motilin analog [1-12] (FVPIFTYGELQR; Motilin; UniProt P12872 26-37, looked up, fragment)”, the “fold increased binding affinity” value (MTLR [5]; motilin analog [1-12] compared with analog [1-11], ref [4]) is listed as 158 -fold.
For `CC[C@H]1OC(=O)[C@H](C)[C@@H](O[C@H]2C[C@@](C)(OC)[C@@H](O)[C@H](C)O2)[C@H](C)[C@@H](O[C@@H]2O[C@H](C)C[C@H](N(C)C)[C@H]2O)[C@](C)(O)C[C@@H](C)C(=O)[C@H](C)[C@@H](O)[C@]1(C)O` [erythromycin], the “erythromycin activity (in words)” value (MTLR L341A) is given as “markedly decreased erythromycin activities”, the “weaker MTLR activation ability than motilin” value (MTLR [3]; erythromycin versus motilin, ref [4]) is given as ~ 1000 -fold and the MTLR agonism (MTLR [3]; ref [11]) is given as “agonist for MTLR”. For the same molecule, the “role of ECL2 regions of MTLR for erythromycin” value (MTLR [5]; ref [16], [35]) was “not critical for erythromycin”, the ligand activity [6] was “marked decrease in ligand activity” and the GI contractile activity (GI motility; ref [9], [10]) was “mimic exogenous motilin in GI contractile activity”. For the same molecule, the GI motility activity (GI motility; ref [9]) was “mimic the GI motility activity of motilin” and the effectiveness in gastroparesis (gastroparesis) was “effective treatment for gastroparesis”.
